The subject of assay [1] is MV-4-11 (carrying MLL-AF4). In words: Inhibition of proliferation of human tumor cells (Alamar Blue, 7 days), MV-4-11. It counts as cell-based. The settings on record: Homo sapiens, MV4-11, 168 h, MV-4-11 cells (carrying MLL-AF4), method calls the value GI50. The procedure, abridged: (§1)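 Cells seeded at 4,000/well (MV-4-11, MOLM-13) or 3,000/well (KG-1a), treated in duplicate with serial compound dilutions for 7 days at 37°C, 5% CO2. Alamar Blue fluorescence read on Day 7, normalised to 0.1% DMSO Day-7 (high) and Day-0 (low) controls; GI50 derived.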
In general terms: Resazurin is reduced to fluorescent resorufin, in cell work by metabolically active cells.

The next assay has as its target T1, Menin-MLL (Homo sapiens, UniProt O00255).
T1 construct: His-Menin (M1-L615 end); purchased BIORTUS BP9210
T1 sequence (O00255 1-615 isoform O00255-1): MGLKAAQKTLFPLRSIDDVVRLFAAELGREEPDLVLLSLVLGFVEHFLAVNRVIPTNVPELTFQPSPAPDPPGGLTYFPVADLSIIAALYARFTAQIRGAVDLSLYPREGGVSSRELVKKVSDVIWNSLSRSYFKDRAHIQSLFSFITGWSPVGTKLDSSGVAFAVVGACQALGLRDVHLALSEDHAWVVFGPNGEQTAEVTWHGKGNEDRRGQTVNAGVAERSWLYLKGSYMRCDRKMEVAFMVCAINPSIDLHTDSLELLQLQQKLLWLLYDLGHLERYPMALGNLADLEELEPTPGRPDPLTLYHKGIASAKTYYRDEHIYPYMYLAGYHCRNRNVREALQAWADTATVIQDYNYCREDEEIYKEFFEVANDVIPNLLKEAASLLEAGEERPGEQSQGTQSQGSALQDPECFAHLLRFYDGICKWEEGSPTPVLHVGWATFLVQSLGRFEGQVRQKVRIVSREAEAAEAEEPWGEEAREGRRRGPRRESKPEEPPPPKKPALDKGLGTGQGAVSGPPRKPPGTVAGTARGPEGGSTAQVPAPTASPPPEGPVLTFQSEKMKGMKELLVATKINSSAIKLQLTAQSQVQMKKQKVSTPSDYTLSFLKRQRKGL
Briefly: Inhibitory activity against Menin-MLL binding (fluorescence polarization). The note with it: fluorescence polarization; 150 nM His-Menin, 15 nM FITC-MLL; 25°C for 60 min; read-out: Menin-MLL IC50. The procedure, abridged: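 His-Menin (M1-L615, 150 nM) preincubated with compound 15 min at 25 °C in HEPES pH 7.5, 50 mM NaCl, 1 mM DTT, 0.01% BSA, then 15 nM FITC-MLL4-43 peptide added for 60 min at 25 °C. Fluorescence polarization read; IC50 from 4-parameter logistic fit, duplicates.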
On the technique in general: In fluorescence polarisation assays a small probe gives low polarisation when free and higher when bound to something large.

Assay [2] concerns MOLM-13 (carrying MLL-AF9). Briefly: Inhibition of proliferation of human tumor cells (Alamar Blue, 7 days), MOLM-13. It counts as cell-based. The note with it: Homo sapiens, 168 h, MOLM-13 cells (carrying MLL-AF9), method calls the value GI50. The procedure, abridged: as §1

On to `Cc1nc(F)c2c(-c3ccc(F)cc3C(=O)N3[C@H](C)COC[C@H]3C)cc(C3CN(CC4CCN(C(=O)c5cncnc5)CC4)C3)cn12` [Example 234], for which the IC50 in assay [1] is 0.0058 µM; at Menin-MLL, 0.011 µM; in assay [2], 0.014 µM.

Take `Cc1nc(F)c2c(-c3ccc(F)cc3C(=O)N3CCOC[C@H]3C)cc(C3CN([C@@H](C)C4CCOCC4)C3)cn12` [Example 238-2, (3R)-4-[5-fluoro-2-(1-fluoro-3-methyl-6-{1-[(1S)-1-(oxacyclohexan-4-yl)ethyl]azacyclobutan-3-yl}imidazo[1,5-a]pyridin-8-yl)benzoyl]-3-methylmorpholine]: the IC50 is 0.011 µM in assay [1], 0.018 µM on Menin-MLL and 0.027 µM in assay [2].

With `Cc1nc(F)c2c(-c3ccc(F)cc3C(=O)N3[C@H](C)COC[C@H]3C)cc(C3CN(CC4CCN(C(=O)N5CC(F)(F)C5)CC4)C3)cn12` [Example 242], the values for the IC50 (in assay [1]; on Menin-MLL; in assay [2]) were 0.0059 µM, 0.0095 µM and 0.028 µM, respectively.

Turning to `Cc1ncc2c(-c3ccc(F)cc3C(=O)N3CCOC[C@H]3C)cc(C3CN(CC4CCOCC4)C3)cn12` [Example 243, (3R)-4-[5-fluoro-2-(3-methyl-6-{1-[(oxacyclohexan-4-yl)methyl]azacyclobutan-3-yl}imidazo[1,5-a]pyridin-8-yl)benzoyl]-3-methylmorpholine], the 50% inhibitory concentration (IC50) in assay [1] amounted to 0.042 µM; on Menin-MLL, 0.0315 µM; in assay [2], 0.2 µM.

For the molecule `Cc1nc(F)c2c(-c3ccc(F)cc3C(=O)N3CCOC[C@H]3C)cc(C3CN(C(CC[C@H]4CNCCO4)C(C)C)C3)cn12` (stereo partly drawn) [Example 244, (3R)-4-{5-fluoro-2-[1-fluoro-3-methyl-6-(1-{4-methyl-1-[(2S)-morpholin-2-yl]pentan-3-yl}azacyclobutan-3-yl)imidazo[1,5-a]pyridin-8yl]benzoyl}-3-methylmorpholine], the figures for the IC50 (in assay [1]; on Menin-MLL; in assay [2]) were 0.013 µM, 0.017 µM and 0.064 µM, respectively.

On to `Cc1nc(F)c2c(-c3ccc(F)cc3C(=O)N3CCOC[C@H]3C)cc(C3CN([C@@H](CC[C@H]4CNCCO4)C(C)C)C3)cn12` [Example 244-2, (3R)-4-[5-fluoro-2-(1-fluoro-3-methyl-6-{1-[(3S)-4-methyl-1-[(2S)-morpholin-2-yl]pentan-3-yl]azacyclobutan-3-yl}imidazo[1,5-a]pyridin-8yl)benzoyl]-3-methylmorpholine], for which the IC50 in assay [1] is 0.054 µM; on Menin-MLL it was 0.034 µM; in assay [2], 0.13 µM.

As for `Cc1nc(F)c2c(-c3ccc(F)cc3C(=O)N3[C@H](C)COC[C@H]3C)cc(C3CN(CC4CCN(C(=O)c5cn[nH]c5)CC4)C3)cn12` [Example 247], the IC50 in assay [1] was determined as 0.0092 µM; on Menin-MLL it was 0.0095 µM; in assay [2], 0.022 µM.

As for `Cc1nc(F)c2c(-c3ccc(F)cc3C(=O)N3CCOC[C@H]3C)cc(C3CN(CC4CCN(C(=O)C5(O)CC5)CC4)C3)cn12` [Example 248], the IC50 was 0.034 µM in assay [1], 0.0305 µM at Menin-MLL and 0.063 µM in assay [2].

For the molecule `Cc1nc(F)c2c(-c3ccc(F)cc3C(=O)N3CCOC[C@H]3C)cc(C3CN(CC4CCN(C(=O)CC#N)CC4)C3)cn12` [Example 249], the IC50 in assay [1] amounted to 0.05 µM; at Menin-MLL, 0.024 µM; in assay [2], 0.044 µM.

`CNC(=O)N1CCC(CN2CC(c3cc(-c4ccc(F)cc4C(=O)N4CCOC[C@H]4C)c4c(F)nc(C)n4c3)C2)CC1` [Example 250]: the IC50 in assay [1] came to 0.026 µM; on Menin-MLL, 0.017 µM; in assay [2], 0.045 µM.

In the case of `Cc1nc(F)c2c(-c3ccc(F)cc3C(=O)N3CCOC[C@H]3C)cc(C3CN(CC4CCN(C(=O)N5CC(F)(F)C5)CC4)C3)cn12` [Example 258], the results for the IC50 (in assay [1]; on Menin-MLL; in assay [2]) were 0.036 µM, 0.05 µM and 0.049 µM, respectively.

With `COC(=O)N1CCC(CN2CC(c3cc(-c4ccc(F)cc4C(=O)N4CCOC[C@H]4C)c4c(F)nc(C)n4c3)C2)CC1` [Example 259], the IC50 in assay [1] was 0.055 µM; on Menin-MLL, 0.059 µM; in assay [2], 0.11 µM.

For the molecule `Cc1nc(F)c2c(-c3ccc(F)cc3C(=O)N3CCOC[C@H]3C)cc(C3CN(CC4CCN(c5cncnc5)CC4)C3)cn12` [Example 266, (3R)-4-{5-fluoro-2-[1-fluoro-3-methyl-6-(1-{[1-(pyrimidin-5-yl)piperidin-4-yl]methyl}azacyclobutan-3-yl)imidazo[1,5-a]pyridin-8yl]benzoyl}-3-methylmorpholine], the concentration for half-maximal inhibition (IC50) amounted to 0.013 µM in assay [1], 0.013 µM on Menin-MLL and 0.033 µM in assay [2].

Turning to `Cc1nc(F)c2c(-c3ccc(F)cc3C(=O)N3CCOC[C@H]3C)cc(C3CN(C[C@H]4CC[C@@H](n5cncn5)CC4)C3)cn12` [Example 267, (3R)-4-{5-fluoro-2-[1-fluoro-3-methyl-6-(1-{[(1s,4s)-4-(1H-1,2,4-triazol-1-yl)cyclohexyl]methyl}azacyclobutan-3-yl)imidazo[1,5-a]pyridin-8yl]benzoyl}-3-methylmorpholine], the IC50 in assay [1] was 0.02 µM; at Menin-MLL, 0.012 µM; in assay [2] it was 0.045 µM.

Turning to `Cc1nc(F)c2c(-c3ccc(F)cc3C(=O)N3CCOC[C@H]3C)cc(C3CN(CC4CCN(C(=O)C(F)F)CC4)C3)cn12` [Example 268], the 50% inhibitory concentration (IC50) came to 0.036 µM in assay [1], 0.0325 µM at Menin-MLL and 0.096 µM in assay [2].

For the molecule `Cc1nc(F)c2c(-c3ccc(F)cc3C(=O)N3CCOC[C@H]3C)cc(C3CN(CC4CCN(C(=O)C5CC5)CC4)C3)cn12` [Example 269], the IC50 in assay [1] was 0.037 µM; on Menin-MLL, 0.0335 µM; in assay [2], 0.083 µM.

`Cc1nc(F)c2c(-c3ccc(F)cc3C(=O)N3CCOC[C@H]3C)cc(C3CN(CC4CCN(C(=O)CC(C)C)CC4)C3)cn12` [Example 271]: the IC50 in assay [1] was determined as 0.012 µM; at Menin-MLL, 0.027 µM; in assay [2] it was 0.033 µM.

Consider `Cc1nc(F)c2c(-c3ccc(F)cc3C(=O)N3CCOC[C@H]3C)cc(C3CN([C@@H](C)C4CCN(C(=O)C5(O)CC5)CC4)C3)cn12` [Example 278], for which the IC50 turned out to be 0.0083 µM in assay [1], 0.011 µM at Menin-MLL and 0.024 µM in assay [2].

Regarding `CCNC(=O)N1CCC([C@H](C)N2CC(c3cc(-c4ccc(F)cc4C(=O)N4CCOC[C@H]4C)c4c(F)nc(C)n4c3)C2)CC1` [Example 279], the figures for the IC50 (in assay [1]; on Menin-MLL; in assay [2]) were 0.0033 µM, 0.006 µM and 0.0074 µM, respectively.

Turning to `CCNC(=O)N1CCC(C(C)N2CC(c3cc(-c4ccc(F)cc4C(=O)N(CC)C(C)C)c4c(F)nc(C)n4c3)C2)CC1` (stereo not drawn) [Example 282, N-ethyl-4-{1-[3-(8-{2-[ethyl(isopropyl)aminoformyl]-4-fluorophenyl}-1-fluoro-3-methylimidazo[1,5-a]pyridin-6-yl)azacyclobutan-1-yl]ethyl}piperidin-1-formamide], the IC50 worked out at 0.0054 µM in assay [1], 0.004 µM on Menin-MLL and 0.025 µM in assay [2].

As for `CCNC(=O)N1CCC(C(C)N2CC(c3cc(-c4ccc(F)cc4C(=O)N(CC)C(C)C)c4cnc(C)n4c3)C2)CC1` (stereo not drawn) [Example 285], the IC50 in assay [1] was 0.0054 µM; on Menin-MLL it was 0.004 µM; in assay [2], 0.023 µM.

Consider `CCN(C(=O)c1cc(F)ccc1-c1cc(C2CN(C(C)C3CCN(C(C)=O)CC3)C2)cn2c(C)nc(F)c12)C(C)C` (stereo not drawn) [Example 288], for which the IC50 in assay [1] turned out to be 0.015 µM; at Menin-MLL, 0.006 µM; in assay [2] it was 0.055 µM.

With `CCNC(=O)N1CCC(CN2CC(c3cc(-c4ccc(F)cc4C(=O)N(CC)C(C)C)c4cnc(C)n4c3)C2)CC1` [Example 290], the IC50 in assay [1] came out at 0.0052 µM; at Menin-MLL, 0.004 µM; in assay [2], 0.024 µM.

As for `CCCC(=O)N1CCC([C@H](C)N2CC(c3cc(-c4ccc(F)cc4C(=O)N4CCOC[C@H]4C)c4c(F)nc(C)n4c3)C2)CC1` [Example 294], the figures for the IC50 (in assay [1]; at Menin-MLL; in assay [2]) were 0.0049 µM, 0.0095 µM and 0.046 µM, respectively.

Consider `CCC(=O)N1CCC([C@H](C)N2CC(c3cc(-c4ccc(F)cc4C(=O)N4CCOC[C@H]4C)c4c(F)nc(C)n4c3)C2)CC1` [Example 295], for which the values for the IC50 (in assay [1]; at Menin-MLL; in assay [2]) were 0.019 µM, 0.005 µM and 0.047 µM, respectively.

One may read the IC50 as the concentration that inhibits the measured activity by half.
